Test systems include 786-0 renal; A549 NSCLC; HCT-15 colon; MCF7 breast; MDA-MB-435; OVCAR-3 ovarian; OVCAR-4 ovarian; SR leukemia; TK-10 renal; UO-31 renal.
Common to all, as to test: inhibition of tumour cell growth, NCI panel, 48 h

Data on eight compounds can be found in PubChem BioAssay (NCI).

Each structure is given as a SMILES string.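 Test compounds were applied to cells in 96-well plates for 48 hours at 5 doses. GI50 is the concentration that inhibits growth by half. TGI marks complete inhibition of growth.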 Some results are limits rather than exact numbers.

As to `COc1cc2ncnc(Oc3ccc(NC(=O)Nc4ccc(CN5CCOCC5)c(C(F)(F)F)c4)c4ccccc34)c2cc1OC`, the GI50 in the assay on 786-0 renal was 0.831 µM; with A549 NSCLC it was 0.734 µM; in the assay on HCT-15 colon it was 1.04 µM; with MCF7 breast, 0.363 µM; in the assay with MDA-MB-435, 0.436 µM; with OVCAR-3 ovarian, 1.17 µM. Also, the GI50 with OVCAR-4 ovarian was 0.124 µM; in the assay on SR leukemia, 0.752 µM; with TK-10 renal, 0.445 µM; in the assay with UO-31 renal, 0.189 µM. Besides, the TGI is 6.74 µM in the assay on 786-0 renal; 10.5 µM in the assay with A549 NSCLC; 4.7 µM in the assay with HCT-15 colon; 10.7 µM in the assay on MCF7 breast; 2.83 µM with MDA-MB-435; 6.15 µM with OVCAR-3 ovarian. Also, the TGI worked out at 8.69 µM in the assay on OVCAR-4 ovarian, 6.02 µM with SR leukemia, 6.95 µM with TK-10 renal and 2.98 µM in the assay on UO-31 renal.
As for `C=C1C(=O)O[C@@H]2/C=C(/C)[C@@H](OC(C)=O)C[C@@H](O)/C(C)=C\[C@@H](OC(=O)[C@]3(C)O[C@@H]3C)[C@@H]12`, the TGI in the assay with 786-0 renal was 15.8 µM; in the assay on A549 NSCLC, > 100 µM; with HCT-15 colon it was 34.1 µM; in the assay with MCF7 breast, 18.1 µM; in the assay on MDA-MB-435, 28.8 µM; with OVCAR-3 ovarian, 23.8 µM. Further, the TGI in the assay with OVCAR-4 ovarian turned out to be 45.8 µM; in the assay with SR leukemia, 21.5 µM; in the assay on TK-10 renal it was 29.5 µM.
Regarding `Cc1cc2nc3c(C#N)c(C)c(CCCl)c(Cl)n3c2cc1C`, the TGI in the assay on 786-0 renal was determined as 3.69 µM; in the assay with A549 NSCLC it was 17.7 µM; in the assay with HCT-15 colon it was 3.85 µM; with MCF7 breast, 8.64 µM; with MDA-MB-435, 4.92 µM; in the assay with OVCAR-3 ovarian, 3.56 µM. The TGI came to 16.6 µM with OVCAR-4 ovarian, 5.81 µM in the assay on SR leukemia, 4.24 µM in the assay on TK-10 renal and 7.25 µM in the assay on UO-31 renal.
Consider `COc1cc2c(cc1OC)C(Cl)C(c1ccc(Br)cc1)=C2Cl` (configuration not stated), for which the TGI was 16.7 µM with 786-0 renal; 33 µM in the assay with A549 NSCLC; 23.6 µM in the assay with HCT-15 colon; 21.2 µM in the assay with MCF7 breast; 17.4 µM in the assay with MDA-MB-435; 24.1 µM in the assay with OVCAR-3 ovarian. Besides, the TGI is 63.5 µM in the assay with OVCAR-4 ovarian, > 100 µM with SR leukemia, 23.6 µM in the assay on TK-10 renal and 17.1 µM in the assay on UO-31 renal.
For `COc1cc2c(cc1OCC(=O)Nc1ccc(Cl)cc1C(=O)c1ccccc1Cl)N=CC1CCCN1C2=O` (configuration not stated), the GI50 is 12.4 µM with 786-0 renal; 16.8 µM with A549 NSCLC; 12.6 µM in the assay on HCT-15 colon; 5.27 µM in the assay with MCF7 breast; 13 µM in the assay with MDA-MB-435; 3.72 µM in the assay with OVCAR-3 ovarian. In addition, the GI50 is 14.4 µM with OVCAR-4 ovarian, 3.7 µM in the assay on SR leukemia, 12.2 µM in the assay with TK-10 renal and 7.97 µM in the assay on UO-31 renal. In addition, the TGI with 786-0 renal is 26 µM; with A549 NSCLC, 33 µM; in the assay with HCT-15 colon, 26 µM; in the assay on MCF7 breast it was 17.5 µM; in the assay on MDA-MB-435 it was 26.3 µM; in the assay with OVCAR-3 ovarian, 14.6 µM. The TGI was 32.9 µM in the assay on OVCAR-4 ovarian, 28 µM in the assay on SR leukemia, 25.1 µM with TK-10 renal and 20.5 µM in the assay with UO-31 renal.
For the compound `C[C@@H]1CC[C@@H]2[C@@H]1[C@H](OC(=O)/C=C/C1CCCCC1)[C@]1(C3CCCCC3)C[C@@H](OC(=O)CO)[C@@]2(C)O1`, the GI50 was 12 µM in the assay with 786-0 renal; 14.2 µM in the assay with A549 NSCLC; 14 µM with HCT-15 colon; 12.8 µM with MCF7 breast; 15.5 µM with MDA-MB-435; 13.8 µM in the assay on OVCAR-3 ovarian. Further, the values for the GI50 in the assay with OVCAR-4 ovarian, with SR leukemia and in the assay with TK-10 renal were 13.1 µM, 14 µM and 15.8 µM, respectively. In addition, the TGI in the assay with 786-0 renal worked out at 24.1 µM; in the assay with A549 NSCLC, 27.1 µM; in the assay on HCT-15 colon it was 26.7 µM; in the assay on MCF7 breast, 25.6 µM; with MDA-MB-435 it was 31 µM; with OVCAR-3 ovarian it was 26.7 µM. Moreover, the TGI in the assay on OVCAR-4 ovarian turned out to be 26.6 µM; with SR leukemia, 32.9 µM; in the assay on TK-10 renal, 29.5 µM.
Turning to `CC12CCC(C1)C(C)(C)C2OC(=O)c1ccccc1N` (configuration not stated), the TGI in the assay with 786-0 renal came out at 33.5 µM; with A549 NSCLC, 29.2 µM; in the assay on HCT-15 colon it was 33.7 µM; in the assay with MCF7 breast, 31.8 µM; with MDA-MB-435, 31.2 µM; in the assay with OVCAR-3 ovarian, 30.8 µM. Moreover, the TGI in the assay on SR leukemia came to 25.8 µM; in the assay with TK-10 renal, 32.8 µM; in the assay with UO-31 renal, 30.8 µM.
As to `CCOP(=O)(OCC)/C(=C/n1c(=S)[nH]c2ccccc21)C(=O)OC`, the TGI is > 100 µM in the assay with 786-0 renal; > 100 µM in the assay on A549 NSCLC; > 52.2 µM with HCT-15 colon; > 100 µM in the assay with MCF7 breast; > 100 µM in the assay with MDA-MB-435; > 100 µM with OVCAR-4 ovarian. The TGI in the assay with SR leukemia, with TK-10 renal and with UO-31 renal was > 100 µM throughout. Besides, the GI50 with TK-10 renal and in the assay on UO-31 renal was > 100 µM in each case.
